# Patent publication US4093734A, “Amino-benzoic acid amides” (Boehringer Ingelheim GmbH, priority 1975, dated 1978)
# Structures can show the parent of a compound that is named as a salt.
# How the values were obtained:
# [1] = tested on: hindlimb tonic extensor component of the maximal seizure pattern; test: Anticonvulsive activity in mice (maximal electroshock seizure); type: in vivo; conditions: Mus musculus, po, p.o.
# Experimental: Male mice with body weights between 20 and 26 gm were used as experimental animals. They were allowed free access to food (Altromin®) and water up to one hour before administration of the test compound. Tests were carried out by using the maximal electroshock seizure pattern[Swinyard, Brown and Goodman, J. Pharmacol. exp. Ther. 106, 319 (1952)]. The electroshock apparatus was constructed according to Woodbury and Davenport […]. The electric impulses (50 Hz A.C., 50 mA, 0.2 sec) were delivered via steel ball electrodes covered with buckskin and moistened with 0.9% sodium chloride solution placed on the heads and over the eyes of the mice. The test is a measure of the ability of anticonvulsive drugs to abolish the hindlimb tonic extensor component of the maximal seizure pattern induced by electric stimulation. The test compound was administered either as the free base or as the hydrochloride. The free base was suspended in 1% tylose, and the hydrochloride was dissolved in distilled water. […] Control groups received only the suspension agent or solvent orally. 30, 150 and 300 minutes after administration all animals were shocked.
# [2] = Acute toxicity in the mouse after intravenous administration; conditions: in vivo, i.v., mice, observed 14 days
# Experimental: 5 female and 5 male mice per dose, with body weights between 20 and 26 gm, served as test animals. The animals had access to food and drinking water ad libitum.
# Compounds D, E, I and J were dissolved in distilled water, compounds A, B and C in 0.2% tartaric acid, and compound G in 15% propylene glycol.
# The injected volume at the dosage level of 50 mgm/kg i.v. amounted to 0.1 ml/10 gm of animal. When the dosage was increased or diminished by 10 mgm/kg i.v., the volume was increased or diminished by […], respectively. Control groups of 10 animals each were only treated with the solvent.
# The LD50 -values were determined according to the graphic-statistical method of Litchfield and Wilcoxon [(J. Pharmacol. exp. Therap. 96, 99, (1949)].
# [3] = tested on: drinking frequency of thirsty animals; test: Anxiolytic activity (drinking frequency of thirsty naive rats, electro-shock); type: in vivo; conditions: 10 mgm/kg orally, one hour before testing; for Shocks/animal, Treated animals: 3-minute session; for Shocks/animal, Difference (treated animals vs controls): ^+ significant difference compared with control group, (A, C, H, I, K), ° difference compared with control group, p >0.1 (B, D, E, F, J), G unmarked
# Experimental: In their experiments, the drinking frequency of thirsty animals served as a measure for anxiety-relieving effects. Female rats with body weights between 150 and 170 gm were used as experimental animals. Food was available at all times, whereas they were deprived of water for 48 hours prior to the test session. The test apparatus was an opaque plastic box (24 × 24 × 22 cm), provided with a plexiglass cover and a […] floor. The metal drinking tube of a 250 ml-bottle covered with a hard plastic projected 2 cm from the wall into the box, the tube being attached to one side at a height of 6.5 cm. A piece of 0.2 cm at the tip of the tube was not plastic-covered. An electrical circuit was connected between the tube and the grid floor. Whenever a rat closed the circuit by licking the tube, each lick was counted electronically. At every 20th lick the animal received an electro-shock (40 V, 10 mA A.C.) via the tube ending and the grid. After the first 20 licks a time-counter was switched on, finishing the test after 3 minutes. Within this period the drinking frequency of each animal was recorded as the number of shocks delivered during the 3-minute session. […] The control groups received only the solvent or suspension agent. Statistical comparisons were made, using the Mann-Whitney-U-test (Siegel: Nonparametric Statistics, McGraw-Hill, 1956).
# [4] = 0.5 h, 30 min. after administration
# [5] = 2.5 h, 150 min. after administration
# [6] = 5 h, 300 min. after administration
Structure (SMILES),"ED50 [1, 4] [mg/kg]","ED50 [1, 5] [mg/kg]","ED50 [1, 6] [mg/kg]",LD50 at 336 h [2] [mg/kg],"Shocks/animal, Treated animals [3] [Shocks/animal]","Shocks/animal, Difference (treated animals vs controls) [3] [Shocks/animal]"
"Cl.Nc1ccc(C(=O)NCc2ccccc2)c(Cl)c1 [G, 4-amino-N-benzyl-2-chloro-benzoic acid amide hydrochloride]",68,133,200,48,7.1,3.8
"CCN1CCCC1CNC(=O)c1cc(Cl)cc(Cl)c1N (stereo not drawn) [D, N-[1-ethyl-pyrrolidyl-(2)-methyl]-2-amino-3,5-dichloro-benzoic acid amide hydrochloride]",35,54,109,31.5,6.8,3.1
"Nc1c(C(=O)NCc2cccnc2)cc(Cl)cc1C(F)(F)F [K, 2-amino-5-chloro-N-[pyridyl-(3)-methyl]-3-trifluoromethyl-benzoic acid amide]",> 200,70,73,,9.6,6.1
"CCN1CCCC1CNC(=O)c1cc(Cl)cc(C(F)(F)F)c1N (stereo not drawn) [I, N-[1-Ethyl-pyrrolidyl-(2)-methyl]-2-amino-5-chloro-3-trifluoromethyl-benzoic acid amide hydrochloride]",72,100,124,52.5,7.5,4.6
"Cl.Nc1ccc(C(=O)NC2CCCCC2)c(Cl)c1 [F, 4-amino-2-chloro-N-cyclohexyl-benzoic acid amide hydrochloride]",38,50,116,,5.3,2.0
"CCN1CCCC1CNC(=O)c1cc(Br)cc(Cl)c1N (stereo not drawn) [E, N-[1-ethyl-pyrrolidyl-(2)-methyl]-2-amino-5-bromo-3-chloro-benzoic acid amide hydrochloride]",44,68,109,25,7.5,4.5
"CN(C(=O)c1ccc(N)cc1Cl)C1CCCCC1 [H, 4-amino-2-chloro-N-cyclohexyl-N-methyl-benzoic acid amide]",200,155,200,,7.8,4.6
"CCN1CCCC1CNC(=O)c1cc(C)cc(Cl)c1N (stereo not drawn) [A, N-[1-ethyl-pyrrolidyl-(2)-methyl]-2-amino-3-chloro-5-methyl-benzoic acid amide]",28,60,102,28.6,7.1,3.6
"CCN1CCCC1CNC(=O)c1cc([N+](=O)[O-])cc(Cl)c1N (stereo not drawn) [B, N-[1-ethyl-pyrrolidyl-(2)-methyl]-2-amino-3-chloro-5-nitro-benzoic acid amide]",78,130,178,39,4.9,1.2
"CCN1CCCC1CNC(=O)c1cc(Cl)c(N)c(C(F)(F)F)c1 (stereo not drawn) [J, N-[1-ethyl-pyrrolidyl-(2)-methyl]-4-amino-3-chloro-5-trifluoromethyl-benzoic acid amide hydrochloride]",62,64,82,33.5,7.2,3.6
"CCN1CCCC1CNC(=O)c1cc(F)c(N)c(Cl)c1 (stereo not drawn) [Compound C, N-[1-ethyl-pyrrolidyl-(2)-methyl]-4-amino-3-chloro-5-fluoro-benzoic acid amide]",37,50,128,28.5,6.7,3.9
